Laboratory results as given in ChEMBL document CHEMBL5212743, “Selectivity Literature for EUbOPEN Chemogenomics Library wave 3” (2023).

What was measured:
[1] = target: T1, Muscarinic acetylcholine receptor M2 (Homo sapiens) (UniProt P08172); test: Selectivity interaction (Eurofins Panlabs Discovery Services Panel (enzymes and receptors)) EUB0000234b CHRM2; settings: at 10 µM
T1 sequence (whole entry): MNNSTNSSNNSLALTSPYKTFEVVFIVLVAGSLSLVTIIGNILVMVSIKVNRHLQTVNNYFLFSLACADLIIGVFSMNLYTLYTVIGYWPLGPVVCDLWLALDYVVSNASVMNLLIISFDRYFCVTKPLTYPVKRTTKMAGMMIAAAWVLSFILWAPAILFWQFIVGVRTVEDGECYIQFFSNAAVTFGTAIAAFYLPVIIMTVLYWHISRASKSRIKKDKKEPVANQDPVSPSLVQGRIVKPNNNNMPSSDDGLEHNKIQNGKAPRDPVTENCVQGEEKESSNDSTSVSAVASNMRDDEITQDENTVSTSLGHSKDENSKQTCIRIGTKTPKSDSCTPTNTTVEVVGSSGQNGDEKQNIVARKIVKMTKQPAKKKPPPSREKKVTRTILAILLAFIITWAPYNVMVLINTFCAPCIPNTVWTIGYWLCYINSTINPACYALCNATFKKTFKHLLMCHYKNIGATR

[2] = target: Muscarinic acetylcholine receptor M2 (Homo sapiens, UniProt P08172); test: Selectivity interaction (GloSensor assay) EUB0000234b CHRM2
[3] = target: Adenosine receptor A2b (Homo sapiens) (UniProt P29275); test: Selectivity interaction (Eurofins Panlabs Discovery Services Panel (enzymes and receptors)) EUB0000234b ADORA2B; settings: at 10 µM
Chain of Adenosine receptor A2b (Homo sapiens) (P29275 whole entry): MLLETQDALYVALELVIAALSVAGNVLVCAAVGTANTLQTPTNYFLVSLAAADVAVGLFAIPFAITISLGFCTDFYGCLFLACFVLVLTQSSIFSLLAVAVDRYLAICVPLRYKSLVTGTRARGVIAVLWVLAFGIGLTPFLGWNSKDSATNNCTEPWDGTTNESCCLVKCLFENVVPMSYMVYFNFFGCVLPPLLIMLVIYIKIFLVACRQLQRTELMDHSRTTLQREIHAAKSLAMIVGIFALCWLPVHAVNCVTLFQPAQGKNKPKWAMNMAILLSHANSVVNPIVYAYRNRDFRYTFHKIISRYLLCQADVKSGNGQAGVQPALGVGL

Adenosine receptor A2b = Adenosine receptor A2b (Homo sapiens, UniProt P29275); test: Selectivity interaction (GloSensor assay) EUB0000234b ADORA2B
Chain of Adenosine receptor A2b (P29275 whole entry): as above

Histamine H3 receptor [4] = target: T2, Histamine H3 receptor (Homo sapiens, UniProt Q9Y5N1); test: Selectivity interaction (Eurofins Panlabs Discovery Services Panel (enzymes and receptors)) EUB0000234b HRH3; settings: at 10 µM
T2 sequence (Q9Y5N1 whole entry): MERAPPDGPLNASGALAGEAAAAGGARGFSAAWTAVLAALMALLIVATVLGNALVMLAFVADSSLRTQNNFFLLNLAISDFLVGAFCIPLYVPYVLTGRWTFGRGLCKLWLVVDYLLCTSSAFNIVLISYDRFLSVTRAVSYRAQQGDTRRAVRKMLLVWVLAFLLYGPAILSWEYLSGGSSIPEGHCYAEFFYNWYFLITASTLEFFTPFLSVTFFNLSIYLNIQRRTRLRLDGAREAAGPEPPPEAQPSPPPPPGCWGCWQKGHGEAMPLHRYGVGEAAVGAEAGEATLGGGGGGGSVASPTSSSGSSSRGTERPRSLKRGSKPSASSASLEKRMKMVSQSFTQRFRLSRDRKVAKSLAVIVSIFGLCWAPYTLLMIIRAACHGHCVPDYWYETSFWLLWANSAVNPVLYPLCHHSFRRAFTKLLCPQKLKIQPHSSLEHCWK

Histamine H3 receptor [5] = target: T2, Histamine H3 receptor; test: Selectivity interaction (GloSensor assay) EUB0000234b HRH3
Mu-type opioid receptor [6] = target: T3, Mu-type opioid receptor (Homo sapiens, UniProt P35372); test: Selectivity interaction (Eurofins Panlabs Discovery Services Panel (enzymes and receptors)) EUB0000234b OPRM1; settings: at 10 µM
T3 sequence (P35372 whole entry): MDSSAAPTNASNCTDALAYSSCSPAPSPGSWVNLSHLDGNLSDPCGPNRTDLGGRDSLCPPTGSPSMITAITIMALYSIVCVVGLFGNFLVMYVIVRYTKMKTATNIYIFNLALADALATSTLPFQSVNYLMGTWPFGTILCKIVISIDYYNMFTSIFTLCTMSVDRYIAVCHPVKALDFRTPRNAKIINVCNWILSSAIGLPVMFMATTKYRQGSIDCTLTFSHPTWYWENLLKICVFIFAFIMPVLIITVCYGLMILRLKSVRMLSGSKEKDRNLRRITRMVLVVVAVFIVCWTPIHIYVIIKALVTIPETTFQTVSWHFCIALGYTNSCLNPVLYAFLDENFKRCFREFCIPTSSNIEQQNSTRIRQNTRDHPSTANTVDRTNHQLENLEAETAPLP

Mu-type opioid receptor [7] = target: T3, Mu-type opioid receptor; test: Selectivity interaction (GloSensor assay) EUB0000234b OPRM1
[8] = target: Histone-lysine N-methyltransferase PRDM9 (Homo sapiens) (UniProt Q9NQV7); test: Selectivity interaction (Methyltransferase panel (DSF assay)) EUB0000234b PRDM9
Chain of Histone-lysine N-methyltransferase PRDM9 (Homo sapiens) (Q9NQV7 whole entry, the tested form may be a part): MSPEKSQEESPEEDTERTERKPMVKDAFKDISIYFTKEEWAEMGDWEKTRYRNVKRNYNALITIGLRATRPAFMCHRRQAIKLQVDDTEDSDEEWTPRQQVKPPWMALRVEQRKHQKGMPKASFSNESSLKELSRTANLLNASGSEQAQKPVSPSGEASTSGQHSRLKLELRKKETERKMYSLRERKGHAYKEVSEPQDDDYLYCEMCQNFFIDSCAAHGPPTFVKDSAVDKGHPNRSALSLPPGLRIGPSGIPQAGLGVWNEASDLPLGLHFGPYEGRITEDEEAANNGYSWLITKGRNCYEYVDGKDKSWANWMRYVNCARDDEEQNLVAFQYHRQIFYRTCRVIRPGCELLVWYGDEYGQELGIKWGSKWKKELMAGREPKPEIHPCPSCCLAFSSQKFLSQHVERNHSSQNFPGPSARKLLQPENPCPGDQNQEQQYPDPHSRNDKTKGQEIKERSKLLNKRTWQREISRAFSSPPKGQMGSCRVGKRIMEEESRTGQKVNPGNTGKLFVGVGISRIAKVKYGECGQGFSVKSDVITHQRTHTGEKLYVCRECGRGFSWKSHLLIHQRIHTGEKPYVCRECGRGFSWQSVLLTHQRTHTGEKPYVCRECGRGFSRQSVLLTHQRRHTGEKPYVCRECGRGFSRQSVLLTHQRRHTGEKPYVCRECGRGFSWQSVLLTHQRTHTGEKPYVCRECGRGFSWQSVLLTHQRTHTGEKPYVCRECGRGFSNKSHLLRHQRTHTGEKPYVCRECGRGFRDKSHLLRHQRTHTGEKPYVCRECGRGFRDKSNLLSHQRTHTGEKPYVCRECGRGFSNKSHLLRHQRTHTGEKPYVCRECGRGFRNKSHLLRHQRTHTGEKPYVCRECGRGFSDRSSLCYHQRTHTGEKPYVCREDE

[9] = target: Histone-lysine N-methyltransferase PRDM9 (Homo sapiens) (UniProt Q9NQV7); test: Selectivity interaction (NanoLuciferase thermal shift assay (NALTSA, in HEK293 cells)) EUB0000234b PRDM9; type: cell-based
[10] = target: PR domain-containing protein 11 (Homo sapiens) (UniProt Q9NQV5); test: Selectivity interaction (Methyltransferase panel (DSF assay)) EUB0000234b PRDM11
Chain of PR domain-containing protein 11 (Homo sapiens) (Q9NQV5 whole entry, the tested form may be a part): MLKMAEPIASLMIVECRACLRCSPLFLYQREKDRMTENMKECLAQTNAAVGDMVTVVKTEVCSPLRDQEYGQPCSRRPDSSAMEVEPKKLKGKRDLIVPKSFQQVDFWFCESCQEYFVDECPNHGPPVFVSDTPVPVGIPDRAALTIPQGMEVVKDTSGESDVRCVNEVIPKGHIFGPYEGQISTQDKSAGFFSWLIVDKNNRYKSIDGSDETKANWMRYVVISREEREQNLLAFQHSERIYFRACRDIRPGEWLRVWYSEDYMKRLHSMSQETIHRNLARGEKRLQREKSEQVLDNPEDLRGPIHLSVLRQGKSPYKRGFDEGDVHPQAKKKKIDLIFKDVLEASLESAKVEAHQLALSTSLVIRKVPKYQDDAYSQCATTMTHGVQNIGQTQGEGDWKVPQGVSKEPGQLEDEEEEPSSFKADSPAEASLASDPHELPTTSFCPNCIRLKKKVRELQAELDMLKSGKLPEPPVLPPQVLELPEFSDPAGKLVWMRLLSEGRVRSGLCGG

[11] = target: PR domain zinc finger protein 12 (Homo sapiens) (UniProt Q9H4Q4); test: Selectivity interaction (Methyltransferase panel (DSF assay)) EUB0000234b PRDM12
[12] = target: PR domain zinc finger protein 13 (Homo sapiens) (UniProt Q9H4Q3); test: Selectivity interaction (Methyltransferase panel (DSF assay)) EUB0000234b PRDM13
[13] = target: PR domain zinc finger protein 14 (Homo sapiens) (UniProt Q9GZV8); test: Selectivity interaction (Methyltransferase panel (DSF assay)) EUB0000234b PRDM14
[14] = target: Histone-lysine N-methyltransferase PRDM7 (Homo sapiens) (UniProt Q9NQW5); test: Selectivity interaction (Methyltransferase panel (DSF assay)) EUB0000234b PRDM7
Chain of Histone-lysine N-methyltransferase PRDM7 (Homo sapiens) (Q9NQW5 whole entry, the tested form may be a part): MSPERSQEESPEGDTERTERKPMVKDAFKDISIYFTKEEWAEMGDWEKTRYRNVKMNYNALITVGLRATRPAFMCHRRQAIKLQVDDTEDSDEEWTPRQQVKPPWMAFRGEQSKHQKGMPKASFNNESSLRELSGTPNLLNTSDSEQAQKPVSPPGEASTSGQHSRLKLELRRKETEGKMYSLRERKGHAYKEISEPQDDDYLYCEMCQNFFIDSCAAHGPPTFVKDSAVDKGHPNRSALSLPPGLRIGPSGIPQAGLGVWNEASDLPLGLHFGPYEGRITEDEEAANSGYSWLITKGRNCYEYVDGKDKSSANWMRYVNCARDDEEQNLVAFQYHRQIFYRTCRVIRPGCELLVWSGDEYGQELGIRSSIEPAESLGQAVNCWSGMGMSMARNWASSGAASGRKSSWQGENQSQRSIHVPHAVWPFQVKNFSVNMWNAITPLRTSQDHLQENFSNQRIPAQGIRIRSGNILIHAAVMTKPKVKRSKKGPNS

[15] = target: PR domain zinc finger protein 8 (Homo sapiens) (UniProt Q9NQV8); test: Selectivity interaction (Methyltransferase panel (DSF assay)) EUB0000234b PRDM8
[16] = target: Histone-lysine N-methyltransferase MECOM (Homo sapiens) (UniProt Q03112); test: Selectivity interaction (Methyltransferase panel (DSF assay)) EUB0000234b MECOM
[17] = target: PR domain zinc finger protein 1 (Homo sapiens) (UniProt O75626); test: Selectivity interaction (Methyltransferase panel (DSF assay)) EUB0000234b PRDM1
[18] = target: PR domain zinc finger protein 10 (Homo sapiens) (UniProt Q9NQV6); test: Selectivity interaction (Methyltransferase panel (DSF assay)) EUB0000234b PRDM10
[19] = target: Histone-lysine N-methyltransferase PRDM16 (Homo sapiens) (UniProt Q9HAZ2); test: Selectivity interaction (Methyltransferase panel (DSF assay)) EUB0000234b PRDM16
[20] = target: PR domain zinc finger protein 2 (Homo sapiens) (UniProt Q13029); test: Selectivity interaction (Methyltransferase panel (DSF assay)) EUB0000234b PRDM2
[21] = target: Putative histone-lysine N-methyltransferase PRDM6 (Homo sapiens) (UniProt Q9NQX0); test: Selectivity interaction (Methyltransferase panel (DSF assay)) EUB0000234b PRDM6
Adenosine receptor A3 = target: T4, Adenosine receptor A3 (Homo sapiens, UniProt P0DMS8); test: Selectivity interaction (Radioligand binding assay (MDS Pharma Service)) EUB0000296b ADORA3
T4 sequence (P0DMS8 whole entry): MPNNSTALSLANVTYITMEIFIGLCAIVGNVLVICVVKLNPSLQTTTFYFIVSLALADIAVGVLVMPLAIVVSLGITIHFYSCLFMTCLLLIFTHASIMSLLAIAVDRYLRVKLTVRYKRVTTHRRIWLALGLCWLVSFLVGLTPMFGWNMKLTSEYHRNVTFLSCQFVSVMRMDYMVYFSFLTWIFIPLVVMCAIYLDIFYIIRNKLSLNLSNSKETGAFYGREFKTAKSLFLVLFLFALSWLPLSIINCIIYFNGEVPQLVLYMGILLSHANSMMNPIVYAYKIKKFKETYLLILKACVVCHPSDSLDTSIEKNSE

[22] = target: T5, Alpha-2C adrenergic receptor (Homo sapiens, UniProt P18825); test: Selectivity interaction (Radioligand binding assay (MDS Pharma Service)) EUB0000296b ADRA2C
T5 sequence (P18825 whole entry): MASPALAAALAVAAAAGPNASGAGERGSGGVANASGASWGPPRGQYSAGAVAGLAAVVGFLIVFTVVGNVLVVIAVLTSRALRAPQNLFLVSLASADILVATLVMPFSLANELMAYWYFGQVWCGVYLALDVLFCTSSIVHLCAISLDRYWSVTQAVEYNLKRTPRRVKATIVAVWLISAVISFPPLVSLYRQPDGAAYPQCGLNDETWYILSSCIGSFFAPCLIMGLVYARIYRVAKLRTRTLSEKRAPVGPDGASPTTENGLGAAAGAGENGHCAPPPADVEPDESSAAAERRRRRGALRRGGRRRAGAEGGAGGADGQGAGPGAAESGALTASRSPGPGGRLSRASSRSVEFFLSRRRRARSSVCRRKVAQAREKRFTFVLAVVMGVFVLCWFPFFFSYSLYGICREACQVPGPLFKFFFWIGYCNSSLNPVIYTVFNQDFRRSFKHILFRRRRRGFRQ

[23] = target: Serine/threonine-protein kinase STK11 (Homo sapiens) (UniProt Q15831); test: Selectivity interaction (KinomeScan (DiscoverX)) EUB0000296b STK11; settings: at 1 µM
Chain of Serine/threonine-protein kinase STK11 (Homo sapiens) (Q15831 whole entry): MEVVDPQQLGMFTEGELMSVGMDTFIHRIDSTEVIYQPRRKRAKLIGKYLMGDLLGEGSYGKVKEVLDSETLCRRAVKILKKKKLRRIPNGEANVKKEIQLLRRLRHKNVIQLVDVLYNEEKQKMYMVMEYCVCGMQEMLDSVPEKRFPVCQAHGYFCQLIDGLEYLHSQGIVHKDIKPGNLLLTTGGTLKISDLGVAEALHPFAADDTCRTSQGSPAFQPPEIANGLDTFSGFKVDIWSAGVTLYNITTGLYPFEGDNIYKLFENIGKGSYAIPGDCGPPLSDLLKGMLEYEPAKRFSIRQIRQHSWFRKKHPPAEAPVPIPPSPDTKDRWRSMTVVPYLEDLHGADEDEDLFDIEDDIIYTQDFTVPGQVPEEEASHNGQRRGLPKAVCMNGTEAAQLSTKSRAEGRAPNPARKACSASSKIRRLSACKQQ

[24] = target: Polyunsaturated fatty acid 5-lipoxygenase (Homo sapiens, UniProt P09917); test: Selectivity interaction (MSD Pharma/Taiwan screen (enzymes and receptors) ) EUB0000296b ALOX5
[25] = target: Synaptic vesicular amine transporter (Homo sapiens, UniProt Q05940); test: Selectivity interaction (Radioligand binding assay (MDS Pharma Service)) EUB0000296b SLC18A2
[26] = target: Dual specificity tyrosine-phosphorylation-regulated kinase 1B (Homo sapiens, UniProt Q9Y463); test: Selectivity interaction (KinomeScan (DiscoverX)) EUB0000296b DYRK1B; settings: at 1 µM
[27] = target: Mitogen-activated protein kinase 3 (Homo sapiens, UniProt P27361); test: Selectivity interaction (MSD Pharma/Taiwan screen (enzymes and receptors) ) EUB0000296b MAPK3
Chain of Mitogen-activated protein kinase 3 (P27361 whole entry): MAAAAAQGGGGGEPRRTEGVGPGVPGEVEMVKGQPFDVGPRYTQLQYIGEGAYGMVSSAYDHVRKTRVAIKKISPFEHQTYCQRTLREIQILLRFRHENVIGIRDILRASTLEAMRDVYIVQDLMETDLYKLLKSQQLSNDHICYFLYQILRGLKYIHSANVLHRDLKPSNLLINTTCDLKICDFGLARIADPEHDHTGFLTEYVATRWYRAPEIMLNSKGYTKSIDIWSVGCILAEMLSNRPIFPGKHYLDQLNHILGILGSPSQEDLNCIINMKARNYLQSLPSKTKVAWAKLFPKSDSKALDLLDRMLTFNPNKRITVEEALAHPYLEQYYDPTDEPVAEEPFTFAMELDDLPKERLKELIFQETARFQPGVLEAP

[28] = target: Mitogen-activated protein kinase 14 (Homo sapiens, UniProt Q16539); test: Selectivity interaction (MSD Pharma/Taiwan screen (enzymes and receptors) ) EUB0000296b MAPK14
Chain of Mitogen-activated protein kinase 14 (Q16539 whole entry): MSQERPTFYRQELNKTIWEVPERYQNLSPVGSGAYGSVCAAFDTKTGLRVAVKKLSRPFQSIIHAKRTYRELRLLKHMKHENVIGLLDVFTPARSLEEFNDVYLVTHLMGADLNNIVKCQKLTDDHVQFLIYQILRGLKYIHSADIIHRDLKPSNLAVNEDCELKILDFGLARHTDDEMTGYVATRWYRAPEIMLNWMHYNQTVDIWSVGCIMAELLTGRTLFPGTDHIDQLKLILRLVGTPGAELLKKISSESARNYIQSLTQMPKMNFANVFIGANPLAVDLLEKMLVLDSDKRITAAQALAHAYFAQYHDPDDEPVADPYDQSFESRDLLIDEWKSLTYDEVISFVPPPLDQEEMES

[29] = target: Sodium-dependent dopamine transporter (Homo sapiens, UniProt Q01959); test: Selectivity interaction (Radioligand binding assay (MDS Pharma Service)) EUB0000296b SLC6A3
Chain of Sodium-dependent dopamine transporter (Q01959 whole entry): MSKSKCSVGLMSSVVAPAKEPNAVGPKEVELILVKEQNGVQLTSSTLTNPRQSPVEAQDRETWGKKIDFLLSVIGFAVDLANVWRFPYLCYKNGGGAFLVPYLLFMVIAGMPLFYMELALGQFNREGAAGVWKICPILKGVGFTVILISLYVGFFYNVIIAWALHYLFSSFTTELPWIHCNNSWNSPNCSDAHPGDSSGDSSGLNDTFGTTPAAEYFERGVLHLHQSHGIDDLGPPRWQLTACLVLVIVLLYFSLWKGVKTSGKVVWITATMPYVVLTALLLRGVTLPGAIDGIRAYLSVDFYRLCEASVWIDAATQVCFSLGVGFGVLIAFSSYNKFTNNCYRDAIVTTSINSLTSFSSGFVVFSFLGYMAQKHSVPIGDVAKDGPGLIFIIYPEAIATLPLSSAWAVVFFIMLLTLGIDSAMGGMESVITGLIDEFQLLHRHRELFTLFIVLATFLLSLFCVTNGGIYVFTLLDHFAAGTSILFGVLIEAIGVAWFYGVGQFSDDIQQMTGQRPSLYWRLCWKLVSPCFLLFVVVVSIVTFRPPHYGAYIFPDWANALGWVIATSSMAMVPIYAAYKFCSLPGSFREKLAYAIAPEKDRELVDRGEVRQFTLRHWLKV

[30] = target: eIF-2-alpha kinase GCN2 (Homo sapiens) (UniProt Q9P2K8); test: Selectivity interaction (KinomeScan (DiscoverX)) EUB0000296b EIF2AK4; settings: at 1 µM
[31] = target: Phosphatidylinositol 4-phosphate 3-kinase C2 domain-containing subunit beta (Homo sapiens) (UniProt O00750); test: Selectivity interaction (KinomeScan (DiscoverX)) EUB0000296b PIK3C2B; settings: at 1 µM
[32] = target: T6, Gamma-aminobutyric acid receptor subunit alpha-1 (Homo sapiens, UniProt P14867); test: Selectivity interaction (GPCR panel (PDSP screen)) EUB0000296b GABRA1
T6 sequence (P14867 whole entry): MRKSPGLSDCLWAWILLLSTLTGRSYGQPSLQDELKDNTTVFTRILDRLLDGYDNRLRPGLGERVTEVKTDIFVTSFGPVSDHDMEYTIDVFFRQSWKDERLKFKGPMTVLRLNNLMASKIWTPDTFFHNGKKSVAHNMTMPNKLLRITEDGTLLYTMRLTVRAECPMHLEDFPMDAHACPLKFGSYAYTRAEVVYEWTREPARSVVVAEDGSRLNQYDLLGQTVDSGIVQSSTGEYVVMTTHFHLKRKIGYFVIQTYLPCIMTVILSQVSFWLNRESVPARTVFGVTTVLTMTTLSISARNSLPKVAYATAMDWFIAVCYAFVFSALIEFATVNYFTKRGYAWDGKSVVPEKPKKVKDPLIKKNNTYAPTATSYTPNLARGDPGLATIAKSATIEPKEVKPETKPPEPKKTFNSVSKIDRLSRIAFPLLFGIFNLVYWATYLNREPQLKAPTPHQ

[33] = target: Epidermal growth factor receptor (Homo sapiens, UniProt P00533); test: Selectivity interaction (MSD Pharma/Taiwan screen (enzymes and receptors) ) EUB0000296b EGFR
[34] = target: Protein kinase C epsilon type (Homo sapiens) (UniProt Q02156); test: Selectivity interaction (KinomeScan (DiscoverX)) EUB0000296b PRKCE; settings: at 1 µM

A % of inhibition [1] of over 50%, an EC50 [2] of over 10000 nM and a % of inhibition [3] of over 50% were found for `COc1cc(OC)cc(-c2noc(N3CCN(C)C4(CCN(c5ccnc(C)c5)CC4)C3)n2)c1` in this work. For the same compound, the EC50 (Adenosine receptor A2b) was over 10000 nM, the % of inhibition (Histamine H3 receptor [4]) was over 50% and the EC50 (Histamine H3 receptor [5]) was over 10000 nM. For the same compound, the % of inhibition (Mu-type opioid receptor [6]) was over 50%, the EC50 (Mu-type opioid receptor [7]) was over 10000 nM and the dTm [8] was 5.2 K. It also gave a dTm [9] of 2 K, a dTm [10] of under 2 K and a dTm [11] of under 2 K. The dTm [12] was under 2 K, the dTm [13] was under 2 K and the dTm [14] was 5 K. The dTm [15] was under 2 K, the dTm [16] was under 2 K and the dTm [17] was under 2 K. The dTm [18] was under 2 K, the dTm [19] was under 2 K and the dTm [20] was under 2 K. For the same compound, the dTm [21] was under 2 K.

A Ki (Adenosine receptor A3) of 773 nM, a Ki [22] of 1130 nM and a % of control [23] of 43% were found for `CC(=O)Nc1c(C(C)=O)c(=O)n(C)c2nc(-c3ccc(Cl)cc3Cl)c(-c3ccc(Cl)cc3)cc12` [NAPHTHYRIDINONE] in this work. For the same compound, the IC50 [24] was 1340 nM, the Ki [25] was 648 nM and the % of control [26] was 35%. It also gave an IC50 [27] of 8610 nM, an IC50 [28] of 3680 nM and a Ki [29] of 799 nM. It also gave a % of control [30] of 48%, a % of control [31] of 48% and a Ki [32] of 82 nM. For the same compound, the IC50 [33] was 3260 nM and the % of control [34] was 48%.
